Laboratory results as given in patent US12138383B2, “Heating unit for use in a drug delivery device” (ALEXZA PHARMACEUTICALS, INC., priority 2007, dated 2024).

Assays:
[1] = Aerosol particle size distribution by Anderson Cascade Impactor; format: physicochemical; details: heat-oxidized perforated 316 stainless steel; for Average MMAD (μm): 28.3 liters/minute; for GSD / MMAD (μm): approx. 0.07 mg/cm^2, 28.3 liters/minute
From the text: An Anderson Cascade Impactor (ACI), an inertial impaction size separating device, was used to determine the particle size distribution of the aerosol. The ACI consists of several stages, with each successive stage having a smaller size cutoff. By extracting and determining the mass of drug deposited at each stage, it is possible to estimate the particle size distribution of the aerosol. The ACI was placed immediately downstream from the screening apparatus. Again, the airway and substrate were extracted to determine the mass balance for each actuation of the device.

[2] = Aerosol purity of condensation aerosol vaporized from drug-coated substrate in substrate screening apparatus (HPLC of filter extract); format: physicochemical; details: heat-oxidized perforated 316 stainless steel
From the text: The substrate screening apparatus 400 is made of a machined plastic (polyoxymethylene, DELRIN® Acetal Resin, DuPont, Wilmington, DE) block 402 with a 2 cm^2 cross-sectional area for mounting a substrate 412. Block 402 includes a first airway 404 extending from first inlet 414 to outlet 422. Block 402 also include a second airway 406 extending from second inlet 416 to substrate 412, where it typically joins the first airway. The substrate 412 is mounted in the substrate screening apparatus 400 across two electrodes 420. A first air flow 414 is established in first airway 404 and a second air flow 416 is established in second airway 406 such that the second air flow 416 passes from the second airway 406 to first airway 404 through holes in the substrate 412. While providing air flows 414 and 416, the substrate 412 is heated, typically by discharging a capacitor (not shown) across the substrate 412. In a one embodiment, the flow of air passing through holes in the substrate 412 is in a direction orthogonal to that of air flow 414. Substrate 412 is coated with a drug composition film. The substrate 412 is heated to vaporized all or a portion of the drug composition. The vaporized drug subsequently cools and condenses to form a condensation aerosol that is carried to the outlet by air flow 414, joined by air flow 416). Accordingly, the condensation aerosol is emitted from the outlet 422.
The test substrates were then coated with a drug composition. The drug was typically dissolved in a volatile organic solvent (e.g., dichloromethane/methanol mixture or acetone or other suitable organic solvent) and then spray-coated onto the test substrates using an automated spray coater. Coating parameters, such as the drug concentration in the coating solution, solution flow rate, were selected to obtain a uniform drug coating of the desired coating density (i.e., mass/area).
Total air flow through the substrate screening apparatus was set by providing air flows 414 and 416 at a desired ratio. (As used herein, “across” air flow refers to air flow 414 and “bottom” air flow refers to air flow 416.) Brass electrodes 420 attached to the substrate screening apparatus 400 were used to clamp the substrate 412 in place and provide electrical connections. For most experiments, a 1-Farad capacitor was used as the energy source. The capacitor was typically charged to 11-14 volts, depending on the desired substrate temperature. A high current relay was used to connect the circuit and discharge the capacitor across the substrate to induce heating and vaporization of the drug.
FIG. 5 is a schematic of another embodiment of a substrate screening apparatus 500 that was used to direct air flow through the holes of coated polyimide film (KAPTON® polyimide film) substrates (see FIGS. 2A and 2B). Substrate screening apparatus 500 is similar in configuration and operation to substrate screening apparatus 400, with the exception that substrate screening apparatus 500 includes two electrodes 502 on the same side of the screening apparatus 500, whereas substrate screening apparatus 400 includes two electrodes 420 on opposite sides of the screening apparatus 400. In the examples using polyimide film substrates described below, a polyimide film substrate coated with a drug composition was placed in substrate screening apparatus 500 across electrodes 502. A computer-controlled power supply was connected to the electrodes. The power supply was typically capable of heating the polyimide film substrate to the target temperature within 300 milliseconds, and the substrate was kept at the target temperature for a duration of 1 second.
To determine aerosol purity and emitted dose, a 2 μm Teflon filter (ZEFLUOR PTFE filters, available from Zefon International, Inc., Ocala, FL) was placed immediately downstream from the screening apparatus during aerosol generation. […]

SMILES: CCCCNc1cc(C(=O)O)cc(S(N)(=O)=O)c1Oc1ccccc1 [Bumetanide, bumetanide]
- Average MMAD (μm) ([1]; coating density 0.08 mg/cm^2, across:bottom 90:10): 2.2 μm
- Average MMAD (μm) ([1]; coating density 0.26 mg/cm^2, across:bottom 90:10): 1.6 μm
- Average MMAD (μm) ([1]; coating density 0.58 mg/cm^2, across:bottom 0:100): 0.9 μm
- Average MMAD (μm) ([1]; coating density 0.58 mg/cm^2, across:bottom 90:10): 1.9 μm
- Average MMAD (μm) ([1]; coating density 0.58 mg/cm^2, across:bottom 100:0): 1.7 μm
- GSD ([1]; across:bottom 0:100): 2.4 ± 0.1
- MMAD (μm) ([1]; across:bottom 0:100): 0.4 ± 0.0 μm
- GSD ([1]; across:bottom 90:10): 2.0 ± 0.1
- MMAD (μm) ([1]; across:bottom 90:10): 2.7 ± 0.1 μm
- GSD ([1]; across:bottom 100:0): 4.0 ± 0.5
- MMAD (μm) ([1]; across:bottom 100:0): 3.6 ± 0.5 μm
- aerosol purity ([2]; 0.07 mg/cm^2, 20 liters/minute, as little as 5% of air flow through the substrate): 98%
- Emitted Aerosol Purity (%) ([2]; 20 liters/minute, across:bottom 0:100): 98.5%
- aerosol purity ([2]; 20 liters/minute, across:bottom 0:100, coating density 0.08 mg/cm^2): 99.3 ± 0.1
- Mean Aerosol Purity (%) ([2]; 20 liters/minute, across:bottom 0:100, coating density 0.10 mg/cm^2): 98.8%
- Mean Aerosol Purity (%) ([2]; 20 liters/minute, across:bottom 0:100, coating density 0.14 mg/cm^2): 98.8%
- aerosol purity ([2]; 20 liters/minute, across:bottom 0:100, coating density 0.26 mg/cm^2): 98.9 ± 0.1
- aerosol purity ([2]; 20 liters/minute, across:bottom 0:100, coating density 0.58 mg/cm^2): 98.7 ± 0.3
- Emitted Aerosol Purity (%) ([2]; 20 liters/minute, across:bottom 50:50): 98.4%
- Mean Aerosol Purity (%) ([2]; 20 liters/minute, across:bottom 50:50, coating density 0.10 mg/cm^2): 98.8%
- Mean Aerosol Purity (%) ([2]; 20 liters/minute, across:bottom 50:50, coating density 0.14 mg/cm^2): 98.9%
- aerosol purity ([2]; 20 liters/minute, across:bottom 90:10, coating density 0.08 mg/cm^2): 99.2 ± 0.1
- aerosol purity ([2]; 20 liters/minute, across:bottom 90:10, coating density 0.26 mg/cm^2): 98.6 ± 0.1
- aerosol purity ([2]; 20 liters/minute, across:bottom 90:10, coating density 0.58 mg/cm^2): 98.4 ± 0.3
- Emitted Aerosol Purity (%) ([2]; 20 liters/minute, across:bottom 100:0): 96.4%
- aerosol purity ([2]; 20 liters/minute, across:bottom 100:0, coating density 0.08 mg/cm^2): 95.8 ± 0.6
- Mean Aerosol Purity (%) ([2]; 20 liters/minute, across:bottom 100:0, coating density 0.10 mg/cm^2): 95.7%
- Mean Aerosol Purity (%) ([2]; 20 liters/minute, across:bottom 100:0, coating density 0.14 mg/cm^2): 94.8%
- aerosol purity ([2]; 20 liters/minute, across:bottom 100:0, coating density 0.26 mg/cm^2): 94.8 ± 0.2
- aerosol purity ([2]; 20 liters/minute, across:bottom 100:0, coating density 0.58 mg/cm^2): 90.7 ± 0.4
